Assays:
[1] = system: HUVEC; assay: Inhibition of ERK phosphorylation in HUVEC at 6.25 uM after 24 hrs by Western blot analysis relative to control; format: cell-based; details: Homo sapiens
[2] = system: HUVEC; assay: Inhibition of ERK phosphorylation in HUVEC at 3.125 uM after 24 hrs by Western blot analysis relative to control; format: cell-based; details: Homo sapiens
[3] = system: HUVEC; assay: Down regulation of VEGF expression in HUVEC at 6.25 uM after 24 hrs by Western blot analysis relative to control; format: functional, Homo sapiens
[4] = system: HUVEC; assay: Antiangiogenic activity against HUVEC assessed as reduction in tube formation at 6.25 uM after 24 hrs by matrigel-based light microscopic analysis relative to control; format: functional, Homo sapiens; parameters: scale not given: the % may be the effect or the level left
[5] = system: HUVEC; assay: Cytotoxicity against HUVEC assessed as reduction in cell viability up to 100 uM after 24 hrs by MTT assay; format: cell-based; details: human
[6] = system: HUVEC; assay: Down regulation of VEGF expression in HUVEC at 3.125 uM after 24 hrs by Western blot analysis relative to control; format: functional, Homo sapiens
[7] = biological target: RAC-alpha serine/threonine-protein kinase (Homo sapiens) (UniProt P31749); assay: Inhibition of AKT phosphorylation in HUVEC at 6.25 uM after 24 hrs by Western blot analysis relative to control; format: cell-based
Sequence of RAC-alpha serine/threonine-protein kinase (Homo sapiens) (P31749 whole entry): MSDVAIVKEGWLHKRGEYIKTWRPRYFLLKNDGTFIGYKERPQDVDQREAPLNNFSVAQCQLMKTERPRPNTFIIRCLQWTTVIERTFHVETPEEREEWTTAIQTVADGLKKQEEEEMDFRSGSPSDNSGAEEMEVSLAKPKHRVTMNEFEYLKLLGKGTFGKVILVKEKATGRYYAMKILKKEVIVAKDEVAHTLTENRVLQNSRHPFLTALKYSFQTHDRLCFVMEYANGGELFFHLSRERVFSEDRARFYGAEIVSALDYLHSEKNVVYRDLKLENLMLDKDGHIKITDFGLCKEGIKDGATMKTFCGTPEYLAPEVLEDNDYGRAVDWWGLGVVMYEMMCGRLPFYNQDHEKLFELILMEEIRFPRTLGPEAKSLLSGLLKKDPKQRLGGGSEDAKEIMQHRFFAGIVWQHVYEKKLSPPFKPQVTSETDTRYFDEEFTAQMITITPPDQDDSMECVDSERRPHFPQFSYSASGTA

[8] = biological target: RAC-alpha serine/threonine-protein kinase (Homo sapiens) (UniProt P31749); assay: Inhibition of AKT phosphorylation in HUVEC at 3.125 uM after 24 hrs by Western blot analysis relative to control; format: cell-based
[9] = system: HUVEC; assay: Antiangiogenic activity against HUVEC assessed as reduction in tube formation at 100 uM after 24 hrs by matrigel-based light microscopic analysis relative to control; format: functional, Homo sapiens; parameters: scale not given: the % may be the effect or the level left
[10] = system: HUVEC; assay: Antiangiogenic activity against HUVEC assessed as reduction in tube formation at 12.5 uM after 24 hrs by matrigel-based light microscopic analysis relative to control; format: functional, Homo sapiens; parameters: scale not given: the % may be the effect or the level left

With `CC(C)(O)c1ccc2c(c1)[C@H](O)C[C@H]1[C@](C)(C(=O)O)CCC[C@]21C` the fold change (FC) [1] was 0.82, the fold change (FC) [2] was 0.98 and the “fold change (FC)” value [3] was 0.69. The Activity [4] was 20.53%, the Activity [5] was “Toxic” and the “fold change (FC)” value [6] was 0.89. The fold change (FC) [7] was 0.68 and the fold change (FC) [8] was 1.1.

For `O=C(O)c1ccc(O)cc1` [PARABEN], the Activity [5] was “Non-Toxic”.

In the case of `CC1=CC[C@@H](C(C)(C)O)C[C@@H]1O`, the Activity [5] is reported as “Non-Toxic”.

For `CC(C)(O)c1ccc2c(c1)[C@@H](O)C[C@H]1[C@](C)(C(=O)O)CCC[C@]21C`, the Activity [5] was “Non-Toxic” and the Activity [9] was 8.95%.

`C=C(C)[C@@H]1CC[C@](C)(O)[C@@H](O)C1` was tested, and the Activity [5] was “Toxic”.

In the case of `CC(C)(O)c1ccc2c(c1)C(=O)C[C@H]1[C@](C)(C(=O)O)CCC[C@]21C`, the Activity [5] is reported as “Non-Toxic”.

`C=C1CC[C@@H]2[C@](C)(CCC[C@@]2(C)C(=O)O[C@@H]2O[C@H](CO)[C@@H](O)[C@H](O)[C@H]2O)[C@H]1CCC1=CCOC1=O` was tested, and the Activity [5] was “Toxic”.

`CC(C)c1ccc2c(c1)CC[C@H]1[C@](C)(C(=O)O)CCC[C@]21C` [DEHYDROABIETIC ACID] was tested, and the Activity [5] was “Toxic” and the Activity [10] was 12.09%.
